Blank lines part the entries; values can stand above or below the molecule they belong to.
Tests used:
[1] = test system: adults with type 1 diabetes; test: Randomised, double-blind crossover trial of liraglutide adjunct to insulin, 4 weeks of treatment: glycaemic control and safety; format: in vivo, human; conditions: for Asymptomatic hypoglycaemic episodes, N = number of subjects / Asymptomatic hypoglycaemic episodes, percentage of subjects / Documented symptomatic hypoglycaemic episodes, N = number of subjects / Documented symptomatic hypoglycaemic episodes, percentage of subjects / Probable symptomatic hypoglycaemic episodes, E = number of events / Probable symptomatic hypoglycaemic episodes, N = number of subjects / Probable symptomatic hypoglycaemic episodes, percentage of subjects / Severe hypoglycaemic episodes, E = number of events / Severe hypoglycaemic episodes, N = number of subjects / Severe hypoglycaemic episodes, percentage of subjects / Total ADA classified hypoglycaemic episodes, E = number of events / Total ADA classified hypoglycaemic episodes, N = number of subjects / Total ADA classified hypoglycaemic episodes, percentage of subjects: during treatment
Protocol: Subjects received target dose for a minimum of 2 weeks.
After 4 weeks of treatment, estimated treatment differences in insulin dose, HbA1c, pulse and body weight were assessed. Hypoglycaemia and hypoglycaemic episodes and overall safety parameters were assessed throughout the treatment period.
Hypoglycaemia and/or hypoglycaemic episodes were defined and assessed according to the ADA Hypoglycaemic Classification (FIG. 3).

[2] = test system: adults with type 1 diabetes; test: Stepwise hypoglycaemic clamp at the end of each treatment period; format: in vivo, human
Protocol: A stepwise hypoglycaemic clamp was performed at the end of each treatment period via controlled i.v. insulin/glucose infusion (FIG. 5). The successive plasma glucose (PG) levels were 5.5, 3.5, 2.5 mmol/L (nadir), and 4.0 mmol/L (recovery). Counterregulatory hormones (glucagon, adrenalin, noradrenalin, cortisol, and growth hormone) and vital signs (pulse, blood pressure) were measured at each successive PG level during the clamp. Glucose infusion rate was also assessed.

[3] = in humans; cited from earlier work
[4] = 0.6 mg liraglutide, during the trial
[5] = 1.2 mg liraglutide, during the trial
[6] = 1.8 mg liraglutide, during the trial

Change in pulse from plasma glucose […] to nadir, estimated treatment difference ([2]; 0.6 mg group vs placebo): 0.6 BPM
Change in pulse from plasma glucose […] to nadir, estimated treatment difference ([2]; 1.2 mg group vs placebo): 2.3 BPM
Change in pulse from plasma glucose […] to nadir, estimated treatment difference ([2]; 1.8 mg group vs placebo): −3.4 BPM
Pulse compared to placebo ([2]; all plasma glucose levels, all liraglutide doses): significantly higher
Other counterregulatory hormones to hypoglycaemia, liraglutide vs placebo ([2]; during hypoglycaemic clamp): no systematic differences
Molecule: CCCCCCCCCCCCCCCC(=O)N[C@@H](CCC(=O)NCCCC[C@H](NC(=O)[C@H](C)NC(=O)[C@H](C)NC(=O)[C@H](CCC(N)=O)NC(=O)CNC(=O)[C@H](CCC(=O)O)NC(=O)[C@H](CC(C)C)NC(=O)[C@H](Cc1ccc(O)cc1)NC(=O)[C@H](CO)NC(=O)[C@H](CO)NC(=O)[C@@H](NC(=O)[C@H](CC(=O)O)NC(=O)[C@H](CO)NC(=O)[C@@H](NC(=O)[C@H](Cc1ccccc1)NC(=O)[C@@H](NC(=O)CNC(=O)[C@H](CCC(=O)O)NC(=O)[C@H](C)NC(=O)[C@@H](N)Cc1cnc[nH]1)[C@@H](C)O)[C@@H](C)O)C(C)C)C(=O)N[C@@H](CCC(=O)O)C(=O)N[C@@H](Cc1ccccc1)C(=O)N[C@H](C(=O)N[C@@H](C)C(=O)N[C@@H](Cc1c[nH]c2ccccc12)C(=O)N[C@@H](CC(C)C)C(=O)N[C@H](C(=O)N[C@@H](CCCNC(=N)N)C(=O)NCC(=O)N[C@@H](CCCNC(=N)N)C(=O)NCC(=O)O)C(C)C)[C@@H](C)CC)C(=O)O [liraglutide]
AEs leading to withdrawal, E = number of events [1, 4]: 1
AEs leading to withdrawal, N = number of subjects [1, 4]: 1
AEs leading to withdrawal, percentage of subjects [1, 4]: 6.7%
Abdominal distention, E = number of events [1, 4]: 1
Abdominal distention, N = number of subjects [1, 4]: 1
Abdominal distention, percentage of subjects [1, 4]: 6.7%
Abdominal pain (N % E, given as a single 0) [1, 4]: 0/0
Adverse events, total number of events, E = number of events [1, 4]: 27
Adverse events, total number of events, N = number of subjects [1, 4]: 12
Adverse events, total number of events, percentage of subjects [1, 4]: 80.0%
Diarrhea (N % E, given as a single 0) [1, 4]: 0/
Dyspepsia (N % E, given as a single 0) [1, 4]: 0/0
Flatulence, E = number of events [1, 4]: 1
Flatulence, N = number of subjects [1, 4]: 1
Flatulence, percentage of subjects [1, 4]: 6.7%
Nausea, E = number of events [1, 4]: 8
Nausea, N = number of subjects [1, 4]: 8
Nausea, percentage of subjects [1, 4]: 53.3%
Regurgitation, E = number of events [1, 4]: 1
Regurgitation, N = number of subjects [1, 4]: 1
Regurgitation, percentage of subjects [1, 4]: 6.7%
Serious AEs (N % E, given as a single 0) [1, 4]: 0/0
Total number of GI AEs, E = number of events [1, 4]: 12
Total number of GI AEs, N = number of subjects [1, 4]: 10
Total number of GI AEs, percentage of subjects [1, 4]: 66.7%
Upper abdominal pain (N % E, given as a single 0) [1, 4]: 0/0
Vomiting, E = number of events [1, 4]: 1
Vomiting, N = number of subjects [1, 4]: 1
Vomiting, percentage of subjects [1, 4]: 6.7%
Asymptomatic hypoglycaemic episodes, N = number of subjects ([1]; 0.6 mg liraglutide): 12
Asymptomatic hypoglycaemic episodes, percentage of subjects ([1]; 0.6 mg liraglutide): 80.0%
Documented symptomatic hypoglycaemic episodes, N = number of subjects ([1]; 0.6 mg liraglutide): 13
Documented symptomatic hypoglycaemic episodes, percentage of subjects ([1]; 0.6 mg liraglutide): 86.7%
Probable symptomatic hypoglycaemic episodes, E = number of events ([1]; 0.6 mg liraglutide): 3
Probable symptomatic hypoglycaemic episodes, N = number of subjects ([1]; 0.6 mg liraglutide): 1
Probable symptomatic hypoglycaemic episodes, percentage of subjects ([1]; 0.6 mg liraglutide): 6.7%
Severe hypoglycaemic episodes, E = number of events ([1]; 0.6 mg liraglutide): 0 (0) 0/
Severe hypoglycaemic episodes, N = number of subjects ([1]; 0.6 mg liraglutide): 0 (0) 0/
Severe hypoglycaemic episodes, percentage of subjects ([1]; 0.6 mg liraglutide): 0 (0) 0/ %
Total ADA classified hypoglycaemic episodes, E = number of events ([1]; 0.6 mg liraglutide): 289
Total ADA classified hypoglycaemic episodes, N = number of subjects ([1]; 0.6 mg liraglutide): 14
Total ADA classified hypoglycaemic episodes, percentage of subjects ([1]; 0.6 mg liraglutide): 93.3%
AEs leading to withdrawal, E = number of events [1, 5]: 1
AEs leading to withdrawal, N = number of subjects [1, 5]: 1
AEs leading to withdrawal, percentage of subjects [1, 5]: 7.1%
Abdominal distention, E = number of events [1, 5]: 3
Abdominal distention, N = number of subjects [1, 5]: 3
Abdominal distention, percentage of subjects [1, 5]: 21.4%
Abdominal pain, E = number of events [1, 5]: 1
Abdominal pain, N = number of subjects [1, 5]: 1
Abdominal pain, percentage of subjects [1, 5]: 7.1%
Adverse events, total number of events, E = number of events [1, 5]: 45
Adverse events, total number of events, N = number of subjects [1, 5]: 14
Adverse events, total number of events, percentage of subjects [1, 5]: 100%
Diarrhea, E = number of events [1, 5]: 1
Diarrhea, N = number of subjects [1, 5]: 1
Diarrhea, percentage of subjects [1, 5]: 7.1%
Dyspepsia, E = number of events [1, 5]: 1
Dyspepsia, N = number of subjects [1, 5]: 1
Dyspepsia, percentage of subjects [1, 5]: 7.1%
Flatulence, E = number of events [1, 5]: 1
Flatulence, N = number of subjects [1, 5]: 1
Flatulence, percentage of subjects [1, 5]: 7.1%
Nausea, E = number of events [1, 5]: 14
Nausea, N = number of subjects [1, 5]: 11
Nausea, percentage of subjects [1, 5]: 78.6%
Regurgitation, E = number of events [1, 5]: 2
Regurgitation, N = number of subjects [1, 5]: 2
Regurgitation, percentage of subjects [1, 5]: 14.3%
Serious AEs (N % E, given as a single 0) [1, 5]: 0/0
Total number of GI AEs, E = number of events [1, 5]: 24
Total number of GI AEs, N = number of subjects [1, 5]: 12
Total number of GI AEs, percentage of subjects [1, 5]: 85.7%
Upper abdominal pain (N % E, given as a single 0) [1, 5]: 0/0
Vomiting, E = number of events [1, 5]: 1
Vomiting, N = number of subjects [1, 5]: 1
Vomiting, percentage of subjects [1, 5]: 7.1%
Asymptomatic hypoglycaemic episodes, N = number of subjects ([1]; 1.2 mg liraglutide): 10
Asymptomatic hypoglycaemic episodes, percentage of subjects ([1]; 1.2 mg liraglutide): 71.4%
Documented symptomatic hypoglycaemic episodes, N = number of subjects ([1]; 1.2 mg liraglutide): 12
Documented symptomatic hypoglycaemic episodes, percentage of subjects ([1]; 1.2 mg liraglutide): 85.7%
Probable symptomatic hypoglycaemic episodes, E = number of events ([1]; 1.2 mg liraglutide): 1
Probable symptomatic hypoglycaemic episodes, N = number of subjects ([1]; 1.2 mg liraglutide): 1
Probable symptomatic hypoglycaemic episodes, percentage of subjects ([1]; 1.2 mg liraglutide): 7.1%
Severe hypoglycaemic episodes, E = number of events ([1]; 1.2 mg liraglutide): 0 (0) 0/
Severe hypoglycaemic episodes, N = number of subjects ([1]; 1.2 mg liraglutide): 0 (0) 0/
Severe hypoglycaemic episodes, percentage of subjects ([1]; 1.2 mg liraglutide): 0 (0) 0/ %
Total ADA classified hypoglycaemic episodes, E = number of events ([1]; 1.2 mg liraglutide): 263
Total ADA classified hypoglycaemic episodes, N = number of subjects ([1]; 1.2 mg liraglutide): 13
Total ADA classified hypoglycaemic episodes, percentage of subjects ([1]; 1.2 mg liraglutide): 92.9%
AEs leading to withdrawal, E = number of events [1, 6]: 1
AEs leading to withdrawal, N = number of subjects [1, 6]: 1
AEs leading to withdrawal, percentage of subjects [1, 6]: 7.1%
Abdominal distention, E = number of events [1, 6]: 5
Abdominal distention, N = number of subjects [1, 6]: 5
Abdominal distention, percentage of subjects [1, 6]: 35.7%
Abdominal pain (N % E, given as a single 0) [1, 6]: 0/
Adverse events, total number of events, E = number of events [1, 6]: 54
Adverse events, total number of events, N = number of subjects [1, 6]: 13
Adverse events, total number of events, percentage of subjects [1, 6]: 92.9%
Diarrhea, E = number of events [1, 6]: 5
Diarrhea, N = number of subjects [1, 6]: 5
Diarrhea, percentage of subjects [1, 6]: 35.7%
Dyspepsia, E = number of events [1, 6]: 1
Dyspepsia, N = number of subjects [1, 6]: 1
Dyspepsia, percentage of subjects [1, 6]: 7.1%
Flatulence (N % E, given as a single 0) [1, 6]: 0/0
Nausea, E = number of events [1, 6]: 13
Nausea, N = number of subjects [1, 6]: 11
Nausea, percentage of subjects [1, 6]: 78.6%
Regurgitation, E = number of events [1, 6]: 1
Regurgitation, N = number of subjects [1, 6]: 1
Regurgitation, percentage of subjects [1, 6]: 7.1%
Serious AEs (N % E, given as a single 0) [1, 6]: 0/0
Total number of GI AEs, E = number of events [1, 6]: 31
Total number of GI AEs, N = number of subjects [1, 6]: 13
Total number of GI AEs, percentage of subjects [1, 6]: 92.9%
Upper abdominal pain, E = number of events [1, 6]: 2
Upper abdominal pain, N = number of subjects [1, 6]: 2
Upper abdominal pain, percentage of subjects [1, 6]: 14.3%
Vomiting, E = number of events [1, 6]: 4
Vomiting, N = number of subjects [1, 6]: 3
Vomiting, percentage of subjects [1, 6]: 21.4%
Asymptomatic hypoglycaemic episodes, N = number of subjects ([1]; 1.8 mg liraglutide): 13
Asymptomatic hypoglycaemic episodes, percentage of subjects ([1]; 1.8 mg liraglutide): 92.9%
Documented symptomatic hypoglycaemic episodes, N = number of subjects ([1]; 1.8 mg liraglutide): 14
Documented symptomatic hypoglycaemic episodes, percentage of subjects ([1]; 1.8 mg liraglutide): 100%
Probable symptomatic hypoglycaemic episodes, E = number of events ([1]; 1.8 mg liraglutide): 4
Probable symptomatic hypoglycaemic episodes, N = number of subjects ([1]; 1.8 mg liraglutide): 1
Probable symptomatic hypoglycaemic episodes, percentage of subjects ([1]; 1.8 mg liraglutide): 7.1%
Severe hypoglycaemic episodes, E = number of events ([1]; 1.8 mg liraglutide): 0 (0) 0/
Severe hypoglycaemic episodes, N = number of subjects ([1]; 1.8 mg liraglutide): 0 (0) 0/
Severe hypoglycaemic episodes, percentage of subjects ([1]; 1.8 mg liraglutide): 0 (0) 0/ %
Total ADA classified hypoglycaemic episodes, E = number of events ([1]; 1.8 mg liraglutide): 316
Total ADA classified hypoglycaemic episodes, N = number of subjects ([1]; 1.8 mg liraglutide): 14
Total ADA classified hypoglycaemic episodes, percentage of subjects ([1]; 1.8 mg liraglutide): 100%
Number of adverse events (AEs) compared to placebo ([1]; during liraglutide treatment): higher
Gastrointestinal (GI) AEs compared to placebo ([1]; liraglutide adjunct to insulin): more
Number of hypoglycaemias or overall number of hypoglycaemic episodes (ADA classification) ([1]; liraglutide adjunct to insulin): did not affect
Severity of GI AEs ([1]; liraglutide adjunct to insulin): mild or moderate
Safety or tolerability issues ([1]; short-term trial, subjects with type 1 diabetes): No unexpected liraglutide-related safety or tolerability issues
Systolic and diastolic blood pressure, liraglutide vs placebo ([2]; during hypoglycaemic clamp): no systematic differences

Molecule: GLP-1: glucagon-like peptide-1, a product of proglucagon, gut hormone
plasma half-life [3]: 2 min

Source: patent publication US20160136246A1, “Novel Uses of GLP-1 Receptor Agonists in Patients Treated with Insulin and/or Suffering from Type 1 Diabetes” (NOVO NORDISK A/S, priority 2013, published 2016)
